From patent publication US12599136B2, “Substituted isophthalic acid diamides and their use as herbicides” (Bayer Aktiengesellschaft, priority 2020, dated 2026)

Columns and labels:
Assay type in all cases: in vivo
Abutilon theophrasti [1] = experiment: Pre-emergence herbicidal action against ABUTH; details: visual score after 3 weeks vs untreated controls
Method in brief: (§1)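 Herbicidal effect was assessed 3 weeks after treatment by visual comparison with untreated controls, 100% denoting dead plants. Aqueous WP or EC preparations had been applied at 600 to 800 l/ha with 0.2% wetting agent to the soil covering freshly sown seeds.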

Alopecurus myosuroides [2] = experiment: Pre-emergence herbicidal action against ALOMY; details: visual score after 3 weeks vs untreated controls
Method in brief: as §1

Amaranthus retroflexus [3] = experiment: Pre-emergence herbicidal action against AMARE; details: visual score after 3 weeks vs untreated controls
Method in brief: as §1

Avena fatua [4] = experiment: Pre-emergence herbicidal action against AVEFA; details: visual score after 3 weeks vs untreated controls
Method in brief: as §1

Cyperus esculentus [5] = experiment: Pre-emergence herbicidal action against CYPES; details: 320 g/ha; visual score after 3 weeks vs untreated controls
Method in brief: as §1

Echinochloa crus-galli [6] = experiment: Pre-emergence herbicidal action against ECHCG; details: visual score after 3 weeks vs untreated controls
Method in brief: as §1

Matricaria inodora [7] = experiment: Pre-emergence herbicidal action against MATIN; details: visual score after 3 weeks vs untreated controls
Method in brief: as §1

Pharbitis purpurea [8] = experiment: Pre-emergence herbicidal action against PHBPU; details: 320 g/ha; visual score after 3 weeks vs untreated controls
Method in brief: as §1

Hordeum murinum [9] = experiment: Pre-emergence herbicidal action against HORMU; details: visual score after 3 weeks vs untreated controls
Method in brief: as §1

Lolium rigidum [10] = experiment: Pre-emergence herbicidal action against LOLRI
Method in brief: as §1

Polygonum convolvulus [11] = experiment: Pre-emergence herbicidal action against POLCO; details: 320 g/ha
Method in brief: as §1

Setaria viridis [12] = experiment: Pre-emergence herbicidal action against SETVI
Method in brief: as §1

Stellaria media [13] = experiment: Pre-emergence herbicidal action against STEME
Method in brief: as §1

Veronica persica [14] = experiment: Pre-emergence herbicidal action against VERPE; details: 320 g/ha
Method in brief: as §1

Viola tricolor [15] = experiment: Pre-emergence herbicidal action against VIOTR
Method in brief: as §1

Abutilon theophrasti [16] = experiment: Post-emergence herbicidal action against ABUTH
Method in brief: (§2)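 Herbicidal effect was scored visually in percent after about 3 weeks in the greenhouse. Plants had been raised in sandy loam and treated post-emergence at the one-leaf stage with formulated compound at 600 to 800 l/ha water plus 0.2% wetting agent.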

Alopecurus myosuroides [17] = experiment: Post-emergence herbicidal action against ALOMY
Method in brief: as §2

Amaranthus retroflexus [18] = experiment: Post-emergence herbicidal action against AMARE; details: visual assessment about 3 weeks after treatment
Method in brief: as §2

Avena fatua [19] = experiment: Post-emergence herbicidal action against AVEFA; details: for Post-emergence action against AVEFA in %: visual assessment about 3 weeks after treatment
Method in brief: as §2

Cyperus esculentus [20] = experiment: Post-emergence herbicidal action against CYPES; details: visual assessment about 3 weeks after treatment
Method in brief: as §2

Echinochloa crus-galli [21] = experiment: Post-emergence herbicidal action against ECHCG; details: visual assessment about 3 weeks after treatment
Method in brief: as §2

Matricaria inodora [22] = experiment: Post-emergence herbicidal action against MATIN; details: for Post-emergence action against MATIN in %: visual assessment about 3 weeks after treatment
Method in brief: as §2

Pharbitis purpurea [23] = experiment: Post-emergence herbicidal action against PHBPU; details: for Post-emergence action against PHBPU in %: visual assessment about 3 weeks after treatment
Method in brief: as §2

Hordeum murinum [24] = experiment: Post-emergence herbicidal action against HORMU
Method in brief: as §2

Lolium rigidum [25] = experiment: Post-emergence herbicidal action against LOLRI; details: 80 g/ha
Method in brief: as §2

Polygonum convolvulus [26] = experiment: Post-emergence herbicidal action against POLCO; details: 80 g/ha, visual assessment about 3 weeks after treatment
Method in brief: as §2

Setaria viridis [27] = experiment: Post-emergence herbicidal action against SETVI; details: for Post-emergence action against SETVI in %: visual assessment about 3 weeks after treatment
Method in brief: as §2

Stellaria media [28] = experiment: Post-emergence herbicidal action against STEME; details: for Post-emergence action against STEME in %: visual assessment about 3 weeks after treatment
Method in brief: as §2

Veronica persica [29] = experiment: Post-emergence herbicidal action against VERPE; details: visual assessment about 3 weeks after treatment
Method in brief: as §2

Viola tricolor [30] = experiment: Post-emergence herbicidal action against VIOTR
Method in brief: as §2

[31] = comparative experiment, 5 g a.i./ha

With `CCn1nnnc1NC(=O)c1ccc(C(F)(F)F)c(C(=O)N(C)C)c1Cl` [Example 2-123] the “Pre-emergence action against ABUTH” value (Abutilon theophrasti [1]; 20 g/ha) was 100%, the “Pre-emergence action against ABUTH” value (Abutilon theophrasti [1]; 80 g/ha) was 100% and the “Pre-emergence action against ABUTH” value (Abutilon theophrasti [1]; Dosage column 320 g/ha (heading prints 3200 g/ha)) was 100%. For the same compound, the “Pre-emergence action against ALOMY” value (Alopecurus myosuroides [2]; 80 g/ha) was 90%, the “Pre-emergence action against ALOMY” value (Alopecurus myosuroides [2]; 320 g/ha) was 100% and the “Pre-emergence action against AMARE” value (Amaranthus retroflexus [3]; 20 g/ha) was 90%. For the same compound, the “Pre-emergence action against AMARE” value (Amaranthus retroflexus [3]; 80 g/ha) was 100%, the “Pre-emergence action against AMARE” value (Amaranthus retroflexus [3]; 320 g/ha) was 100% and the “Pre-emergence action against AVEFA” value (Avena fatua [4]; 80 g/ha) was 90%. The “Pre-emergence action against AVEFA” value (Avena fatua [4]; 320 g/ha) was 100%, the “Pre-emergence action against CYPES” value (Cyperus esculentus [5]) was 80% and the “Pre-emergence action against ECHCG” value (Echinochloa crus-galli [6]; 20 g/ha) was 80%. The “Pre-emergence action against ECHCG” value (Echinochloa crus-galli [6]; 80 g/ha) was 100%, the “Pre-emergence action against ECHCG” value (Echinochloa crus-galli [6]; 320 g/ha) was 100% and the “Pre-emergence action against MATIN” value (Matricaria inodora [7]; 80 g/ha) was 100%. For the same compound, the “Pre-emergence action against MATIN” value (Matricaria inodora [7]; 320 g/ha) was 100%, the “Pre-emergence action against PHBPU” value (Pharbitis purpurea [8]) was 80% and the “Pre-emergence action against HORMU” value (Hordeum murinum [9]; 80 g/ha) was 80%. The “Pre-emergence action against HORMU” value (Hordeum murinum [9]; 320 g/ha) was 100%, the “Pre-emergence action against LOLRI” value (Lolium rigidum [10]; 80 g/ha) was 80% and the “Pre-emergence action against LOLRI” value (Lolium rigidum [10]; 320 g/ha) was 100%. The “Pre-emergence action against POLCO” value (Polygonum convolvulus [11]) was 80%, the “Pre-emergence action against SETVI” value (Setaria viridis [12]; 20 g/ha) was 90% and the “Pre-emergence action against SETVI” value (Setaria viridis [12]; 80 g/ha) was 100%. The “Pre-emergence action against SETVI” value (Setaria viridis [12]; 320 g/ha) was 100%, the “Pre-emergence action against STEME” value (Stellaria media [13]; 20 g/ha) was 90% and the “Pre-emergence action against STEME” value (Stellaria media [13]; 80 g/ha) was 100%. The “Pre-emergence action against STEME” value (Stellaria media [13]; 320 g/ha) was 100%, the “Pre-emergence action against VERPE” value (Veronica persica [14]) was 100% and the “Pre-emergence action against VIOTR” value (Viola tricolor [15]; 80 g/ha) was 90%. The “Pre-emergence action against VIOTR” value (Viola tricolor [15]; 320 g/ha) was 100%, the “Post-emergence action against ABUTH” value (Abutilon theophrasti [16]; 5 g/ha) was 100% and the “Post-emergence action against ABUTH” value (Abutilon theophrasti [16]; 20 g/ha) was 100%. For the same compound, the “Post-emergence action against ABUTH” value (Abutilon theophrasti [16]; 80 g/ha) was 100%, the “Post-emergence action against ALOMY” value (Alopecurus myosuroides [17]; 5 g/ha) was 90% and the “Post-emergence action against ALOMY” value (Alopecurus myosuroides [17]; 20 g/ha) was 100%. For the same compound, the “Post-emergence action against ALOMY” value (Alopecurus myosuroides [17]; 80 g/ha) was 100%, the “Herbicidal action against ALOMY” value (Alopecurus myosuroides [17]; [31]) was 90 and the “Post-emergence action against AMARE in %” value (Amaranthus retroflexus [18]; 5 g/ha) was 100%. For the same compound, the “Post-emergence action against AMARE in %” value (Amaranthus retroflexus [18]; 20 g/ha) was 100%, the “Post-emergence action against AMARE in %” value (Amaranthus retroflexus [18]; 80 g/ha) was 100% and the “Post-emergence action against AVEFA in %” value (Avena fatua [19]; 5 g/ha) was 80%. For the same compound, the “Post-emergence action against AVEFA in %” value (Avena fatua [19]; 20 g/ha) was 100%, the “Post-emergence action against AVEFA in %” value (Avena fatua [19]; 80 g/ha) was 100% and the “Herbicidal action against AVEFA” value (Avena fatua [19]; [31]) was 80. The “Post-emergence action against CYPES in %” value (Cyperus esculentus [20]; 5 g/ha) was 80%, the “Post-emergence action against CYPES in %” value (Cyperus esculentus [20]; 20 g/ha) was 80% and the “Post-emergence action against CYPES in %” value (Cyperus esculentus [20]; 80 g/ha) was 90%. The “Post-emergence action against ECHCG in %” value (Echinochloa crus-galli [21]; 5 g/ha) was 100%, the “Post-emergence action against ECHCG in %” value (Echinochloa crus-galli [21]; 20 g/ha) was 100% and the “Post-emergence action against ECHCG in %” value (Echinochloa crus-galli [21]; 80 g/ha) was 100%. For the same compound, the “Post-emergence action against MATIN in %” value (Matricaria inodora [22]; 5 g/ha) was 90%, the “Post-emergence action against MATIN in %” value (Matricaria inodora [22]; 20 g/ha) was 90% and the “Post-emergence action against MATIN in %” value (Matricaria inodora [22]; 80 g/ha) was 100%. For the same compound, the “Herbicidal action against MATIN” value (Matricaria inodora [22]; [31]) was 90, the “Post-emergence action against PHBPU in %” value (Pharbitis purpurea [23]; 5 g/ha) was 80% and the “Post-emergence action against PHBPU in %” value (Pharbitis purpurea [23]; 20 g/ha) was 90%. For the same compound, the “Post-emergence action against PHBPU in %” value (Pharbitis purpurea [23]; 80 g/ha) was 100%, the “Herbicidal action against PHBPU” value (Pharbitis purpurea [23]; [31]) was 80 and the “Post-emergence action against HORMU in %” value (Hordeum murinum [24]; 20 g/ha) was 90%. For the same compound, the “Post-emergence action against HORMU in %” value (Hordeum murinum [24]; 80 g/ha) was 100%, the “Post-emergence action against LOLRI in %” value (Lolium rigidum [25]) was 100% and the “Post-emergence action against POLCO in %” value (Polygonum convolvulus [26]) was 90%. For the same compound, the “Post-emergence action against SETVI in %” value (Setaria viridis [27]; 5 g/ha) was 100%, the “Post-emergence action against SETVI in %” value (Setaria viridis [27]; 20 g/ha) was 100% and the “Post-emergence action against SETVI in %” value (Setaria viridis [27]; 80 g/ha) was 100%. For the same compound, the “Herbicidal action against SETVI” value (Setaria viridis [27]; [31]) was 100, the “Post-emergence action against STEME in %” value (Stellaria media [28]; 5 g/ha) was 100% and the “Post-emergence action against STEME in %” value (Stellaria media [28]; 20 g/ha) was 100%. For the same compound, the “Post-emergence action against STEME in %” value (Stellaria media [28]; 80 g/ha) was 100%, the “Herbicidal action against STEME” value (Stellaria media [28]; [31]) was 100 and the “Post-emergence action against VERPE in %” value (Veronica persica [29]; 20 g/ha) was 80%. For the same compound, the “Post-emergence action against VERPE in %” value (Veronica persica [29]; 80 g/ha) was 100%, the “Post-emergence action against VIOTR in %” value (Viola tricolor [30]; 20 g/ha) was 100% and the “Post-emergence action against VIOTR in %” value (Viola tricolor [30]; 80 g/ha) was 100%.
